# Test results reported in patent US20160362416A1, “ANTIVIRAL COMPOUNDS” (Gilead Sciences, Inc., priority 2012, published 2016).
# pEC50: −log10 of the molar value.
# Key:
# [1] = tested on: stable HCV 1a RLuc replicon cells (genotype 1a H77 replicon); assay: HCV genotype 1a RLuc replicon reporter assay; assay type: cell-based; settings: Hepatitis C virus; stable genotype 1a H77 RLuc replicon cells, 72 hours
# [2] = tested on: Y93N in genotype 1a NS5A replicon; assay: Resistance mutant replicon assay, genotype 1a NS5A Y93N; assay type: cell-based, HCV; settings: Hepatitis C virus, read-out: 1a Y93N (nM)
# Method in brief: (§1)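 Renilla luciferase activity in lysed cells after 72 h with 3-fold serially diluted compound gave EC50 by non-linear regression. Cells were Huh-7-derived cured-51, transiently transfected with mutant replicon RNA (1a or 1b Pi-RLuc backbone; 3a NS5A in 1b chimera) made by site-directed mutagenesis.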
# [3] = IV and PO single dose pharmacokinetic studies in SD rats; assay type: in vivo; settings: Sprague-Dawley, rat, plasma, male SD rats, IV infusion 1 mg/kg, oral gavage 2 mg/kg, read-out: Rat % F
# Description: IV and PO Single Dose Pharmacokinetic Studies in SD Rats: The pharmacokinetics of selected compounds was characterized in male Sprague-Dawley (SD) rats (250-300 g). In this study, two groups of naïve purebred SD rats (N=3 per group, fasted over night) received the selected compound either as an intravenous (IV) infusion (1 mg/kg over 30 minutes) via the jugular vein or by oral gavage (2 mg/kg). The intravenous (IV) dosing vehicle was 5% ethanol, 35% polyethylene glycol 400 (PEG 400) and 60% water pH 2.0. The oral dosing vehicle was 5% ethanol, 55% PEG 400 and 40% citrate buffer pH 2.2.
# Serial blood samples (approximately 0.3 mL each) were collected from jugular vein or other suitable vein at specified time points. For the IV infusion group, the blood samples were collected predose and at 0.25, 0.48, 0.58, 0.75, 1.5, 3, 6, 8, 12 and 24 hours after the start of infusion. For the oral group, the blood samples were collected predose and at 0.25, 0.50, 1, 2, 4, 6, 8, 12 and 24 hours after dosing. The blood samples were collected into Vacutainer™ tubes containing EDTA-K3 as the anti-coagulant and were centrifuged at approximately 4° C. to obtain plasma. The plasma samples were stored at −20° C. until analysis by LC/MS/MS.
# A bioanalytical method utilizing high performance liquid chromatography coupled to tandem mass spectrometry (LC/MS/MS) was developed for analysis of the selected compound in rat plasma. Detection was performed using selected reaction monitoring (SRM); Ions representing the precursor (M+H)^+ species was selected in quadrupole 1 (Q1) and collided with argon gas in the collision cell (Q2) to generate specific product ion, which was subsequently monitored by quadrupole 3 (Q3). Standard curve and quality control samples were prepared in male rat plasma and processed in the same way as the test samples to generate quantitative data.
# Pharmacokinetic parameters were generated using non-compartmental pharmacokinetic analysis (Phoenix WinNonlin, version 6.3). Values below the lower limit of quantification (LLOQ) were assigned a value of zero if predose and treated as missing thereafter. Area under the curve (AUC) was calculated using the linear trapezoidal rule. The oral bioavailability (% F) was determined by comparison of the area under the curve (AUC) of the compound and/or a metabolite generated in plasma following oral administration to that generated following intravenous administration.
# [4] = tested on: Y93H in genotype 3a NS5A replicon; assay: Resistance mutant replicon assay, genotype 3a NS5A Y93H; assay type: cell-based, HCV; settings: Hepatitis C virus, read-out: 3a Y93H (nM)
# Method in brief: as §1
# [5] = tested on: stable HCV 1b RLuc replicon cells (genotype 1b Con1 replicon); assay: HCV genotype 1b RLuc replicon reporter assay; assay type: cell-based; settings: Hepatitis C virus; stable genotype 1b Con1 RLuc replicon cells, 72 hours
# Method in brief: (§2)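 EC50 derived by non-linear regression of Renilla luciferase signal measured in lysates 72 h after adding 3-fold serial compound dilutions. Replicons: stable genotype 1b Con1 cells; transient Huh-Lunet transfections of NS5A chimeras—4a ED43 or 3a S52 in Con1, 2b MD2b-1 (M31) in JFH-1.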
# [6] = tested on: L31V/Y93H in genotype 1b NS5A replicon; assay: Resistance mutant replicon assay, genotype 1b NS5A L31V/Y93H; assay type: cell-based, HCV; settings: Hepatitis C virus, read-out: 1b L31V/Y93H (nM)
# Description: (§3) Evaluation of cell-based anti-HCV activity: Antiviral potency (EC50) was determined using a Renilla luciferase (RLuc)-based HCV replicon reporter assay. To perform the assay for genotype 1 and 2a JFH-1, stable HCV 1a RLuc replicon cells (harboring a dicistronic genotype 1a H77 replicon that encodes a RLuc reporter), stable HCV lb RLuc replicon cells (harboring a dicistronic genotype 1b Conl replicon that encodes a RLuc reporter), or stable HCV 2a JFH-1 Rluc replicon cells (harboring a dicistronic genotype 2a JFH-1 replicon that encodes a RLuc reporter; with L31 present in NS5A) were dispensed into 384-well plates for EC50 assays. To perform the assay for genotype 2a (with M31 present in NS5A) or 2b, NS5A chimeric genotype 2a JFH-1 replicons that encodes a RLuc-Neo reporter and either genotype 2a J6 strain NS5A gene or genotype 2b MD2b-1 strain NS5A gene (both with M31 present) respectively, were either transiently transfected (t) into Huh-Lunet cells or were established as stably replicating replicon cells (s) is provided. Either cells were dispensed into 384-well plates for EC50 assays. To perform the assay for genotype 3 and 4, NS5A chimeric genotype 1b Conl replicons that encodes a Pi-RLuc reporter and either genotype 3a S52 strain NS5A gene or genotype 4a ED43 strain NS5A gene respectively, were transiently transfected (t) into Huh-Lunet cells, which were subsequently dispensed into 384-well plates. Compounds were dissolved in DMSO at a concentration of 10 mM and diluted in DMSO either manually or using an automated pipeting instrument. Serially 3-fold diluted compounds were either manually mixed with cell culture media and added to the seeded cells or directly added to the cells using an automated instrument. DMSO was used as a negative (solvent; no inhibition) control, and the protease inhibitor ITMN-191 was included at a concentration >100×EC50 as a positive control. 72 hours later, cells were lysed and Renilla luciferase activity quantified as recommended by the manufacturer (Promega-Madison, Wis.). Non-linear regression was performed to calculate EC50 values.
# (§4) To determine the antiviral potency (EC50) against resistance mutants, resistance mutations, including M28T, Q30R, Q30H, Q30E, L31M, Y93C, Y93H, and Y93N in genotype 1a NS5A, Y93H and L31V/Y93H in genotype 1b NS5A, and Y93H for in genotype 3a NS5A, were introduced individually into either 1a Pi-Rluc or 1b Pi-Rluc replicons by site directed mutagenesis. Replicon RNA of each resistant mutant was transiently transfected into Huh-7-derived cured-51 cells and antiviral potency was determined on these transfected cells as described above.
# [7] = tested on: Q30E in genotype 1a NS5A replicon; assay: Resistance mutant replicon assay, genotype 1a NS5A Q30E; assay type: cell-based, HCV; settings: Hepatitis C virus, read-out: 1a Q30E (nM)
# Description: as §3, §4
# [8] = tested on: Q30R in genotype 1a NS5A replicon; assay: Resistance mutant replicon assay, genotype 1a NS5A Q30R; assay type: cell-based, HCV; settings: Hepatitis C virus, read-out: 1a Q30R (nM)
# Description: as §3, §4
# [9] = tested on: stable HCV 2a JFH-1 Rluc replicon cells (L31 present in NS5A); assay: HCV genotype 2a JFH-1 RLuc replicon reporter assay; assay type: cell-based; settings: Hepatitis C virus, 72 h, read-out: 2a JFH (nM)
# [10] = tested on: NS5A chimeric genotype 1b Con1 replicon with genotype 3a S52 strain NS5A gene; assay: HCV genotype 3a NS5A chimeric replicon assay; assay type: cell-based; settings: Hepatitis C virus, 72 h, read-out: 3a (nM)
# Method in brief: as §2
# [11] = tested on: NS5A chimeric genotype 2a JFH-1 replicon with genotype 2a J6 strain NS5A gene (M31); assay: HCV genotype 2a J6 NS5A chimeric replicon assay, transient (t); assay type: cell-based; settings: Hepatitis C virus, 72 h, read-out: 2a J6 (t) (nM)
# [12] = tested on: NS5A chimeric genotype 2a JFH-1 replicon with genotype 2b MD2b-1 strain NS5A gene (M31); assay: HCV genotype 2b NS5A chimeric replicon assay, stable (s); assay type: cell-based; settings: Hepatitis C virus, 72 h, read-out: 2b (s) (nM)
# [13] = tested on: NS5A chimeric genotype 2a JFH-1 replicon with genotype 2b MD2b-1 strain NS5A gene (M31); assay: HCV genotype 2b NS5A chimeric replicon assay, transient (t); assay type: cell-based; settings: Hepatitis C virus, 72 h, read-out: 2b (t) (nM)
# Description: as §3
# [14] = tested on: NS5A chimeric genotype 1b Con1 replicon with genotype 4a ED43 strain NS5A gene; assay: HCV genotype 4a NS5A chimeric replicon assay; assay type: cell-based; settings: Hepatitis C virus, 72 h, read-out: 4a (s) (nM)
# [15] = tested on: Y93H in genotype 1a NS5A replicon; assay: Resistance mutant replicon assay, genotype 1a NS5A Y93H; assay type: cell-based, HCV; settings: Hepatitis C virus, read-out: 1a Y93H (nM)
# Method in brief: as §1
Structure (SMILES),pEC50 [1],EC50 [2] [nM],bioavailability [3] [%],EC50 [4] [nM],pEC50 [5],EC50 [6] [nM],EC50 [7] [nM],EC50 [8] [nM],EC50 [9] [nM],EC50 [10] [nM],EC50 [11] [nM],EC50 [12] [nM],EC50 [13] [nM],EC50 [14] [nM],EC50 [15] [nM]
"CC[C@H]1C[C@@H](c2nc3ccc4cc5c(cc4c3[nH]2)OCc2cc(-c3cnc([C@@H]4CC[C@H](C)N4C(=O)[C@@H](NC(=O)OC)C(C)C)[nH]3)ccc2-5)N(C(=O)[C@@H](NC(=O)OC)C2CCOCC2)C1 [Comp 1, reference compound]",10.74,2.05,9.9,8.07,10.57,0.971,0.319,–,–,–,–,–,–,–,–
"COC(=O)N[C@H](C(=O)N1[C@@H](C)CC[C@H]1c1ncc(-c2ccc3c(c2)COc2cc4c(ccc5nc([C@@H]6CC[C@H](C)N6C(=O)[C@@H](NC(=O)OC)C6CCOCC6)[nH]c54)cc2-3)[nH]1)C1CCOCC1 [Comp 6, reference compound]",10.62,–,–,0.252,10.29,–,0.101,0.042,0.012,0.075,0.012,0.038,0.092,0.014,0.442
"COC[C@H]1C[C@@H](c2ncc(-c3ccc4c(c3)COc3cc5c(ccc6nc([C@@H]7CC[C@H](C)N7C(=O)[C@@H](NC(=O)OC)C(C)C)[nH]c65)cc3-4)[nH]2)N(C(=O)[C@@H](NC(=O)OC)C2C[C@@H](C)O[C@H](C)C2)C1 (stereo partly drawn) [Example AB, Methyl {(2S)-1-[(2S,5S)-2-(9-{2-[(2S,4S)-1-{(2S)-2-[(2R,6R)-2,6-dimethyltetrahydro-2H-pyran-4-yl]-2-[(methoxycarbonyl)amino]acetyl}-4-(methoxymethyl)pyrrolidin-2-yl]-1H-imidazol-5-yl}-1,11-dihydroisochromeno[4′,3′:6,7]naphtho[1,2-d]imidazol-2-yl)-5-methylpyrrolidin-1-yl]-3-methyl-1-oxobutan-2-yl}carbamate]",10.59,0.418,–,8.77,10.34,0.668,0.082,–,0.011,0.025,0.028,–,0.024,0.006,0.163
"CC[C@H]1CC[C@@H](c2nc3ccc4cc5c(cc4c3[nH]2)OCc2cc(-c3cnc([C@@H]4CC[C@H](C)N4C(=O)[C@@H](NC(=O)OC)C(C)C)[nH]3)ccc2-5)N1C(=O)[C@@H](NC(=O)OC)C1C[C@@H](C)O[C@H](C)C1 (stereo partly drawn) [Example AC, Methyl {(1S)-1-[(2R,6R)-2,6-dimethyltetrahydro-2H-pyran-4-yl]-2-[(2S,5S)-2-ethyl-5-(9-{2-[(2S,5S)-1-{(2S)-2-[(methoxycarbonyl)amino]-3-methylbutanoyl}-5-methylpyrrolidin-2-yl]-1H-imidazol-5-yl}-1,11-dihydroisochromeno[4′,3′:6,7]naphtho[1,2-d]imidazol-2-yl)pyrrolidin-1-yl]-2-oxoethyl}carbamate]",10.60,1.63,–,14.5,10.52,1.33,0.312,–,0.016,0.019,0.003,–,0.02,0.005,0.832
"CC[C@H]1C[C@@H](c2nc3ccc4cc5c(cc4c3[nH]2)OCc2cc(-c3cnc([C@@H]4CC[C@H](C)N4C(=O)[C@@H](NC(=O)OC)C(C)C)[nH]3)ccc2-5)N(C(=O)[C@@H](NC(=O)OC)C2C[C@@H](C)O[C@H](C)C2)C1 (stereo partly drawn) [Example AF, Methyl [(1S)-1-[(2R,6R)-2,6-dimethyltetrahydro-2H-pyran-4-yl]-2-{(2S,4S)-4-ethyl-2-[9-(2-{(2S,5S)-1-[N-(methoxycarbonyl)-L-valyl]-5-methylpyrrolidin-2-yl}-1H-imidazol-5-yl)-1,11-dihydroisochromeno[4′,3′:6,7]naphtho[1,2-d]imidazol-2-yl]pyrrolidin-1-yl}-2-oxoethyl]carbamate]",10.66,0.899,–,4.59,10.43,0.18,0.097,–,0.012,0.016,0.003,–,0.014,0.005,0.268
